Laboratory results reported in patent US10758534B2 (Vertex Pharmaceuticals Incorporated, priority 2014, dated 2020).

Biological target: T1, F508del (Homo sapiens, UniProt P13569, DEL508-508)
T1 construct: expressed in transfected cells
Experiment: Protocol 2: FRET membrane potential optical assay (VIPR), identification of correction compounds
Type: cell-based
Conditions: F508del CFTR modulator activity; compounds of Table 1; read-out: EC30
Procedure, shortened: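 Corrector readout: membrane-potential FRET (CC2-DMPE donor, DiSBAC2(3) acceptor) on VIPR II after Cl⁻-free gluconate bath with 10 μM forskolin and 20 μM genistein. Before this, F508del-expressing NIH3T3 cells were exposed to test compound for 16 h at 37 °C without serum; 27 °C incubation served as temperature-correction control.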

T1 sequence (P13569 with tags, fused parts or gaps DEL508-508): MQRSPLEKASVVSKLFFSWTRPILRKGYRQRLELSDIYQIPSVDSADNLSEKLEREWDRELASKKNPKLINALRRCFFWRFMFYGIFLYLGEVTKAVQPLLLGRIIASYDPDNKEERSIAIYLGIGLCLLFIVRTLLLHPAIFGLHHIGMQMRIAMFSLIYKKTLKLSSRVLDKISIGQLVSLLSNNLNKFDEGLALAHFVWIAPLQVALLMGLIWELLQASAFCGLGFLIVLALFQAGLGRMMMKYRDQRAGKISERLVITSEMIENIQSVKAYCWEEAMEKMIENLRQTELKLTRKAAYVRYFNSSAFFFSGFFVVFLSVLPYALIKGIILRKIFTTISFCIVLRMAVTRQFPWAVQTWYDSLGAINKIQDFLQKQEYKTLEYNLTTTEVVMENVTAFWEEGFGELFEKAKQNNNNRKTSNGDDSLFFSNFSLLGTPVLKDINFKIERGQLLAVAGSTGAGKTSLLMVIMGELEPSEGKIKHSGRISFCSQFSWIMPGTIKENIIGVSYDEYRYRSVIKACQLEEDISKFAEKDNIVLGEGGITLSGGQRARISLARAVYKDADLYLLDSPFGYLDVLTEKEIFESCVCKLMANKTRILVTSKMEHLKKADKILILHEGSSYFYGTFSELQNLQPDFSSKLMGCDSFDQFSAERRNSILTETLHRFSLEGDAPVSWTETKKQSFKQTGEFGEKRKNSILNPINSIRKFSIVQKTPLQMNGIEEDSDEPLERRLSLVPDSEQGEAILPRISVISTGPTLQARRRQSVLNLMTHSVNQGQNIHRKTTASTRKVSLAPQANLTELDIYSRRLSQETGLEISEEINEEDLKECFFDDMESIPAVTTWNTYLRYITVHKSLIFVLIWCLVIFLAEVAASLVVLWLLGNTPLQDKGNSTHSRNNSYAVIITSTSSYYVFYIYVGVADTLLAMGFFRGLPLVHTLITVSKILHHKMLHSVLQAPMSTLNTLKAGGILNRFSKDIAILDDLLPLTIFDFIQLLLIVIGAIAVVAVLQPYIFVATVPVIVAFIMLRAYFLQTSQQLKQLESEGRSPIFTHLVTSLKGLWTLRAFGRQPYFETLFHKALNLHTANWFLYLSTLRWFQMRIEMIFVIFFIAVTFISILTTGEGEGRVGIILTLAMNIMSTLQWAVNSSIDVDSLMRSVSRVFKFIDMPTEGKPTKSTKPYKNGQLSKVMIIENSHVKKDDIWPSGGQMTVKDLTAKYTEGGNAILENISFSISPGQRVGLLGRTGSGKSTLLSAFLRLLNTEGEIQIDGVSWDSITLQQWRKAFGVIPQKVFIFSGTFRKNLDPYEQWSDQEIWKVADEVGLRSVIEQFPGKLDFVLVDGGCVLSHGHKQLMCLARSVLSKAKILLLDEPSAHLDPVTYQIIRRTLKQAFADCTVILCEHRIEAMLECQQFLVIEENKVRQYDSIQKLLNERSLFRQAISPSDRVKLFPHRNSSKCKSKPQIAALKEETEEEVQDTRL

| Structure (SMILES) | EC30 |
| --- | --- |
| C[C@@H]1CN(c2nc(-c3cc(F)ccc3F)ccc2C(=O)NS(=O)(=O)c2cccnc2N)C(C)(C)C1 [Compound 2105, N-[(2-amino-3-pyridyl)sulfonyl]-6-(2,5-difluorophenyl)-2-[(4S)-2,2,4-trimethylpyrrolidin-1-yl]pyridine-3-carboxamide] | < 3000 nM |
| CC1CN(c2ncccc2C(=O)NS(=O)(=O)c2cccc(Nc3c(F)cc(F)cc3F)n2)C(C)(C)C1 (stereo not drawn) [Compound 2106, N—[[6-(2,4,6-trifluoroanilino)-2-pyridyl]sulfonyl]-2-(2,2,4-trimethylpyrrolidin-1-yl)pyridine-3-carboxamide] | < 3000 nM |
| CC1CN(c2ncccc2C(=O)NS(=O)(=O)c2cccc(N3CCC(Cc4ccccc4)CC3)n2)C(C)(C)C1 (stereo not drawn) [Compound 2107, N—[[6-(4-benzyl-1-piperidyl)-2-pyridyl]sulfonyl]-2-(2,2,4-trimethylpyrrolidin-1-yl)pyridine-3-carboxamide] | < 3000 nM |
| CC1CN(c2ncccc2C(=O)NS(=O)(=O)c2cccc(Oc3cccc(C(C)C)c3)n2)C(C)(C)C1 (stereo not drawn) [Compound 2108, N—[[6-(3-isopropylphenoxy)-2-pyridyl]sulfonyl]-2-(2,2,4-trimethylpyrrolidin-1-yl)pyridine-3-carboxamide] | < 3000 nM |
| C[C@@H]1CN(c2nc(-c3cccc(F)c3F)ccc2C(=O)NS(=O)(=O)N2CC[C@H](N)C2)C(C)(C)C1 [Compound 2110, N-[(3S)-3-aminopyrrolidin-1-yl]sulfonyl-6-(2,3-difluorophenyl)-2-[(4S)-2,2,4-trimethylpyrrolidin-1-yl]pyridine-3-carboxamide] | > 10000 nM |
| CC1CN(c2ncccc2C(=O)NS(=O)(=O)c2cccc(OCc3cnn(-c4ccccc4)c3)n2)C(C)(C)C1 (stereo not drawn) [Compound 2111, N—[[6-[(1-phenylpyrazol-4-yl)methoxy]-2-pyridyl]sulfonyl]-2-(2,2,4-trimethylpyrrolidin-1-yl)pyridine-3-carboxamide] | < 3000 nM |
| CC1CN(c2ncc(-c3ccc(C4(CO)CC4)cc3)cc2C(=O)NS(=O)(=O)c2cccc(N)n2)C(C)(C)C1 (stereo not drawn) [Compound 2112, N-[(6-amino-2-pyridyl)sulfonyl]-5-[4-[1-(hydroxymethyl)cyclopropyl]phenyl]-2-(2,2,4-trimethylpyrrolidin-1-yl)pyridine-3-carboxamide] | 3000 to 10000 nM |
| CC(C)COc1cc(F)cc(-c2ccc(C(=O)NS(=O)(=O)C3CCCC3)c(N3C[C@@H](C)CC3(C)C)n2)c1 [Compound 2113, N-cyclopentylsulfonyl-6-(3-fluoro-5-isobutoxy-phenyl)-2-[(4S)-2,2,4-trimethylpyrrolidin-1-yl]pyridine-3-carboxamide] | < 3000 nM |
| CC(C)Cn1ccc(-c2ccc(C(=O)NS(=O)(=O)c3cccc(N)n3)c(N3C[C@@H](C)CC3(C)C)n2)n1 [Compound 2114, N-[(6-amino-2-pyridyl)sulfonyl]-6-(1-isobutylpyrazol-3-yl)-2-[(4S)-2,2,4-trimethylpyrrolidin-1-yl]pyridine-3-carboxamide] | < 3000 nM |
| CC1CN(c2ncccc2C(=O)NS(=O)(=O)c2cccc(OCC3COc4ccccc4O3)n2)C(C)(C)C1 (stereo not drawn) [Compound 2115, N—[[6-(2,3-dihydro-1,4-benzodioxin-3-ylmethoxy)-2-pyridyl]sulfonyl]-2-(2,2,4-trimethylpyrrolidin-1-yl)pyridine-3-carboxamide] | < 3000 nM |
| CC1CCN(c2cccc(S(=O)(=O)NC(=O)c3cccnc3N3CC(C)CC3(C)C)n2)C1 (stereo not drawn) [Compound 2116, N—[[6-(3-methylpyrrolidin-1-yl)-2-pyridyl]sulfonyl]-2-(2,2,4-trimethylpyrrolidin-1-yl)pyridine-3-carboxamide] | < 3000 nM |
| CC(C)COc1cc(F)cc(-c2ccc(C(=O)NS(=O)(=O)c3cccc(N)n3)c(N3CC(C)C3)n2)c1 [Compound 2117, N-[(6-amino-2-pyridyl)sulfonyl]-6-(3-fluoro-5-isobutoxy-phenyl)-2-(3-methylazetidin-1-yl)pyridine-3-carboxamide] | < 3000 nM |
| CC1CN(c2ncccc2C(=O)NS(=O)(=O)c2cccc(OCc3ccc(-n4cccn4)cc3)n2)C(C)(C)C1 (stereo not drawn) [Compound 2118, N—[[6-[(4-pyrazol-1-ylphenyl)methoxy]-2-pyridyl]sulfonyl]-2-(2,2,4-trimethylpyrrolidin-1-yl)pyridine-3-carboxamide] | < 3000 nM |
| CC1CN(c2ncccc2C(=O)NS(=O)(=O)c2cccc(NCCCCc3ccccc3)n2)C(C)(C)C1 (stereo not drawn) [Compound 2119, N—[[6-(4-phenylbutylamino)-2-pyridyl]sulfonyl]-2-(2,2,4-trimethylpyrrolidin-1-yl)pyridine-3-carboxamide] | < 3000 nM |
| CC(C)Oc1ccc(-c2ccc(C(=O)NS(=O)(=O)N3CC[C@H](N)C3)c(N3C[C@@H](C)CC3(C)C)n2)cc1 [Compound 2120, N-[(3S)-3-aminopyrrolidin-1-yl]sulfonyl-6-(4-isopropoxyphenyl)-2-[(4S)-2,2,4-trimethylpyrrolidin-1-yl]pyridine-3-carboxamide] | < 3000 nM |
| CC(C)COc1cc(F)cc(-c2ncc(C(=O)NS(=O)(=O)c3cccc(N)n3)c(N3C[C@@H](C)CC3(C)C)n2)c1 [Compound 2121, N-[(6-amino-2-pyridyl)sulfonyl]-2-(3-fluoro-5-isobutoxy-phenyl)-4-[(4S)-2,2,4-trimethylpyrrolidin-1-yl]pyrimidine-5-carboxamide] | < 3000 nM |
| CCOC(=O)c1ccc(Nc2cccc(S(=O)(=O)NC(=O)c3cccnc3N3CC(C)CC3(C)C)n2)cc1 (stereo not drawn) [Compound 2122, ethyl 4-[[6-[[2-(2,2,4-trimethylpyrrolidin-1-yl)pyridine-3-carbonyl]sulfamoyl]-2-pyridyl]amino]benzoate] | < 3000 nM |
| CC1CN(c2ncccc2C(=O)NS(=O)(=O)c2cccc(N3CCC(Cc4ccccc4)C3)n2)C(C)(C)C1 (stereo not drawn) [Compound 2123, N—[[6-(3-benzylpyrrolidin-1-yl)-2-pyridyl]sulfonyl]-2-(2,2,4-trimethylpyrrolidin-1-yl)pyridine-3-carboxamide] | < 3000 nM |
| COc1cc(-c2ccc(C(=O)NS(=O)(=O)c3cccnc3N)c(N3C[C@@H](C)CC3(C)C)n2)ccc1F [Compound 2124, N-[(2-amino-3-pyridyl)sulfonyl]-6-(4-fluoro-3-methoxy-phenyl)-2-[(4S)-2,2,4-trimethylpyrrolidin-1-yl]pyridine-3-carboxamide] | < 3000 nM |
| C[C@@H]1CN(c2nc(-c3ccc4[nH]ccc4c3)ccc2C(=O)NS(=O)(=O)c2cccnc2N)C(C)(C)C1 [Compound 2125, N-[(2-amino-3-pyridyl)sulfonyl]-6-(1H-indol-5-yl)-2-[(4S)-2,2,4-trimethylpyrrolidin-1-yl]pyridine-3-carboxamide] | < 3000 nM |
| Cc1ccc(-c2ccc(C(=O)NS(=O)(=O)c3cccnc3N)c(N3C[C@@H](C)CC3(C)C)n2)c2ccccc12 [Compound 2126, N-[(2-amino-3-pyridyl)sulfonyl]-6-(4-methyl-1-naphthyl)-2-[(4S)-2,2,4-trimethylpyrrolidin-1-yl]pyridine-3-carboxamide] | < 3000 nM |
| Cc1cc(C)cc(-c2ccc(C(=O)NS(=O)(=O)c3cccnc3N)c(N3C[C@@H](C)CC3(C)C)n2)c1 [Compound 2127, N-[(2-amino-3-pyridyl)sulfonyl]-6-(3,5-dimethylphenyl)-2-[(4S)-2,2,4-trimethylpyrrolidin-1-yl]pyridine-3-carboxamide] | < 3000 nM |
| CC(C)COc1cc(F)cc(-c2ccc(C(=O)NS(=O)(=O)c3cccc(N)n3)c(N3CC(F)C3)n2)c1 [Compound 2128, N-[(6-amino-2-pyridyl)sulfonyl]-2-(3-fluoroazetidin-1-yl)-6-(3-fluoro-5-isobutoxy-phenyl)pyridine-3-carboxamide] | 3000 to 10000 nM |
| CC1CN(c2ncc(C3=CCN(C(=O)OC(C)(C)C)CC3)cc2C(=O)NS(=O)(=O)c2cccc(N)n2)C(C)(C)C1 (stereo not drawn) [Compound 2129, tert-butyl 4-[5-[(6-amino-2-pyridyl)sulfonylcarbamoyl]-6-(2,2,4-trimethylpyrrolidin-1-yl)-3-pyridyl]-3,6-dihydro-2H-pyridine-1-carboxylate] | < 3000 nM |
| CCCC(C)(C)Oc1cccc(S(=O)(=O)NC(=O)c2cccnc2N2CC(C)CC2(C)C)n1 (stereo not drawn) [Compound 2130, N—[[6-(1,1-dimethylbutoxy)-2-pyridyl]sulfonyl]-2-(2,2,4-trimethylpyrrolidin-1-yl)pyridine-3-carboxamide] | < 3000 nM |
| CC1CN(c2ncccc2C(=O)NS(=O)(=O)c2cccc(NCC3CCCO3)n2)C(C)(C)C1 (stereo not drawn) [Compound 2131, N—[[6-(tetrahydrofuran-2-ylmethylamino)-2-pyridyl]sulfonyl]-2-(2,2,4-trimethylpyrrolidin-1-yl)pyridine-3-carboxamide] | > 10000 nM |
| Cc1ccc(-c2ccc(C(=O)NS(=O)(=O)c3cccnc3N)c(N3C[C@@H](C)CC3(C)C)n2)cc1 [Compound 2132, N-[(2-amino-3-pyridyl)sulfonyl]-6-(p-tolyl)-2-[(4S)-2,2,4-trimethylpyrrolidin-1-yl]pyridine-3-carboxamide] | < 3000 nM |
| Cc1cccc(-c2ccc(C(=O)NS(=O)(=O)c3ccccc3)c(N3C[C@@H](C)CC3(C)C)n2)c1O [Compound 2133, N-(benzenesulfonyl)-6-(2-hydroxy-3-methyl-phenyl)-2-[(4S)-2,2,4-trimethylpyrrolidin-1-yl]pyridine-3-carboxamide] | < 3000 nM |
| CCOC(=O)c1ccc(OC)c(-c2cnc(N3CC(C)CC3(C)C)c(C(=O)NS(=O)(=O)c3cccc(N)n3)c2)c1 (stereo not drawn) [Compound 2134, ethyl 3-[5-[(6-amino-2-pyridyl)sulfonylcarbamoyl]-6-(2,2,4-trimethylpyrrolidin-1-yl)-3-pyridyl]-4-methoxy-benzoate] | < 3000 nM |
| COCCCNc1cccc(S(=O)(=O)NC(=O)c2cccnc2N2CC(C)CC2(C)C)n1 (stereo not drawn) [Compound 2135, N—[[6-(3-methoxypropylamino)-2-pyridyl]sulfonyl]-2-(2,2,4-trimethylpyrrolidin-1-yl)pyridine-3-carboxamide] | 3000 to 10000 nM |
